{
  "source": "patent US8420060B2",
  "about": "“Pharmaceutical aerosol formulations of formoterol and beclometasone dipropionate” (Chiesi Farmaceutici S.p.A., priority 2009, dated 2013)",
  "key": {"[1]": {"test": "Aerosol performances by Andersen Cascade Impactor (Eur. Pharm. 2.09.18), HPLC quantification", "type": "physicochemical", "conditions": "Example 5 formulation, mean n = 2; for Delivered Dose: 63 μl valve, nominal 6 μg formoterol / 50 μg BDP per actuation; for Fine particle dose: ACI S3 to filter, particles ≦4.7 microns; for Fine particle fraction: ratio respirable dose / delivered dose", "method": "This formulation was filled into an aluminum canister under pressure and fitted with a metering valve having a 63 μl metering chamber.\nQuantification of beclometasone dipropionate (BDP) and formoterol fumarate dehydrate (FF) was performed using a HPLC method. The following parameters were determined: • i) delivered dose is calculated from the cumulative deposition in the ACI, divided by the number of actuations per experiment; • ii) respirable dose (fine particle dose=FPD) is obtained from the deposition from Stages 3 (S3) to filter (AF) of the ACI, corresponding to particles of diameter ≦4.7 microns, divided by the number of actuations per experiment; • iii) respirable fraction (fine particle fraction=FPF) which is the percent ratio between the respirable dose and the delivered dose; • iv) mass median aerodynamic diameter (MMAD) which is the diameter around which the mass aerodynamic diameters of the emitted particles are distributed equally; and • v) Geometric standard deviation (GSD) which is a measure of the spread of the aerodynamic particle size distribution."}, "[2]": {"test": "Storage (chemical) stability of HFA134a/ethanol pMDI solution", "type": "physicochemical", "conditions": "BDP in ethanol/HFA134a mixture, room temperature", "method": "However, although it has the apparent pH adjusted according to the teaching of WO 01/89480 for improving its chemical stability, due to the limited stability of formoterol in solution, said formulation can be stored for no longer than 15 months at a refrigerator temperature (from +2 to +8° C.) and for no longer than 5 months at room temperature."}},
  "note": "Where a name gives a salt, the structure may show the parent alone. Read-outs that look alike come from different tables or passages of the source.",
  "data": [
    {"smiles": "COc1ccc(C[C@@H](C)NC[C@H](O)c2ccc(O)c(NC=O)c2)cc1", "note": "(racemic) [formoterol fumarate dihydrate, 2′-hydroxy-5′-[(RS)-1-hydroxy-2{[(RS)-p-methoxy-α-methylphenethyl]amino}ethyl]formanilide]", "values": [
      {"measurement": "Delivered Dose", "setting": "[1]", "result": 3.9, "unit": "µg"},
      {"measurement": "Fine particle dose", "setting": "[1]", "result": 2.3, "unit": "µg"},
      {"measurement": "GSD", "setting": "[1]", "result": 1.5},
      {"measurement": "MMAD", "setting": "[1]", "result": 2.0, "unit": "μm"},
      {"measurement": "Fine particle fraction", "setting": "[1]", "result": 59.3, "unit": "%"},
      {"measurement": "change of formoterol fumarate dihydrate solubility in the presence of BDP", "setting": "HFA227:ethanol 92.5:7.5 (w/w)", "result": "does not change"},
      {"measurement": "change of formoterol fumarate dihydrate solubility in the presence of BDP", "setting": "HFA227:ethanol 97.3:2.7 (w/w)", "result": "does not change"}
    ]},
    {"smiles": "CCC(=O)OCC(=O)[C@@]1(OC(=O)CC)[C@@H](C)C[C@H]2[C@@H]3CCC4=CC(=O)C=C[C@]4(C)[C@@]3(Cl)[C@@H](O)C[C@@]21C", "note": "[BDP, (8S,9R,10S,11S,13S,14S,16S,17R)-9-chloro-11-hydroxy-10,13,16-trimethyl-3-oxo-17-[2-(propionyloxy)acetyl]-6,7,8,9,10,11,12,13,14,15,16,17-dodecahydro-3H-cyclopenta[a]phenanthren-17-yl propionate]", "values": [
      {"measurement": "Delivered Dose", "setting": "[1]", "result": 46.0, "unit": "µg"},
      {"measurement": "Fine particle dose", "setting": "[1]", "result": 30.0, "unit": "µg"},
      {"measurement": "GSD", "setting": "[1]", "result": 2.2},
      {"measurement": "MMAD", "setting": "[1]", "result": 1.1, "unit": "μm"},
      {"measurement": "Fine particle fraction", "setting": "[1]", "result": 64.0, "unit": "%"},
      {"measurement": "storage time without significant degradation", "setting": "[2]", "result": "at least 35 months"}
    ]}
  ]
}
